{"source": "paper PMC9687571", "about": "“Anti-Inflammatory Activity of Olive Oil Polyphenols—The Role of Oleacein and Its Metabolites” (Biomedicines, 2022)", "key": {"[1]": {"target": "T1, COX-1 (Ovis aries, UniProt P05979)", "T1 construct": "purchased Cayman Chemical", "T1 sequence (P05979 25-600)": "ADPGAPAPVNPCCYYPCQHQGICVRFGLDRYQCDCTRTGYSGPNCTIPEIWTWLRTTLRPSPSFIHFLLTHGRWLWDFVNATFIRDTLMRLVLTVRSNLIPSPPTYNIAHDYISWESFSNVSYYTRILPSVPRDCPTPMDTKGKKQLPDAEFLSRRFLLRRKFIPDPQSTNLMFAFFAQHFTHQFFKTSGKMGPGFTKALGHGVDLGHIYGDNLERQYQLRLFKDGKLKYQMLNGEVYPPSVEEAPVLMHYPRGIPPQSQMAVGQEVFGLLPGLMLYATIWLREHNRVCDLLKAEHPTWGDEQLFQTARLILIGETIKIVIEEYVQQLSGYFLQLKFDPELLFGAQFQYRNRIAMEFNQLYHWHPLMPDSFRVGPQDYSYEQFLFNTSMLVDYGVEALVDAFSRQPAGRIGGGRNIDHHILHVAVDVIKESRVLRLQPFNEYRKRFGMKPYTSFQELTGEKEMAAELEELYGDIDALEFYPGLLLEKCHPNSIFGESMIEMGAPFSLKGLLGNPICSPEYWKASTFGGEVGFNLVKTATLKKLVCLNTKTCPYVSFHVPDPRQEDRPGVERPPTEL", "assay": "COX-1 inhibition assay (COX fluorescent inhibitor assay kit)", "assay_type": "biochemical", "protocol": "(§1) COX assays were performed using the COX fluorescent inhibitor assay kit with some modifications. This assay was based on the reaction between prostaglandin G2 (PGG2), product of COX activity, and 10-acetyl-3,7-dihydroxyphenoxazine (ADHP), producing a highly fluorescent compound, resorufin. Briefly, 60 µL of Tris-HCl buffer (100 mM, pH 8.0), 5 µL of hemin, 5 µL of COX (COX-1 or COX-2) and 5 µL of increasing concentrations of each compound (6.25–100 µM) were added to each well in a black 96-well plate. After 5 min, at room temperature, the reaction started by adding 5 µL of ADHP and 20 µL of substrate (AA 0.5 mM with KOH 2.5 mM) in each well. After 3 min, the fluorescence was measured at 590 nm, setting the excitation wavelength at 535 nm, using a multiplate reader Synergy H1 Biotek. The results were expressed as % of COX inhibition and correspond to the mean ± SEM of four independent assays, each performed in duplicate. SC-560 was used as the positive control for COX-1 and Dup-697 was used as the positive control for COX-2 assay."}, "[2]": {"target": "T2, COX-2 (Homo sapiens, UniProt P35354)", "T2 construct": "purchased Cayman Chemical", "T2 sequence (P35354 18-604)": "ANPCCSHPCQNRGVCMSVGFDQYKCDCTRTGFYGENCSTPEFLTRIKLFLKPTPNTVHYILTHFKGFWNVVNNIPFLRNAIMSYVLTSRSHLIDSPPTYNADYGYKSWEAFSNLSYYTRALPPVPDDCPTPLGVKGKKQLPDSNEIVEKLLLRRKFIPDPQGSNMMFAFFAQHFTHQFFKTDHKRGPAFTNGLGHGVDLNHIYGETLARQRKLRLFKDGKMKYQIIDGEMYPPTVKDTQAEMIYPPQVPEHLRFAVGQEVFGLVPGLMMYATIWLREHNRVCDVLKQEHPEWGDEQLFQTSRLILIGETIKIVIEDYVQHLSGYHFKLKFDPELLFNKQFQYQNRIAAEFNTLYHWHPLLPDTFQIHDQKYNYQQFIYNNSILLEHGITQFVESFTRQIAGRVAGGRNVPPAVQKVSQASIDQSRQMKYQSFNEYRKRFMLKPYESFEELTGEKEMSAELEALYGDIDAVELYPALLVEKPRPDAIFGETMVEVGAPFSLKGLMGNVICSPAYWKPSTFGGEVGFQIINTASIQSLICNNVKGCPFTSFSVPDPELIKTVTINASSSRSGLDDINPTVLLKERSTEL", "assay": "COX-2 inhibition assay (COX fluorescent inhibitor assay kit)", "assay_type": "biochemical", "protocol": "as §1"}, "[3]": {"target": "T3, 5-LOX (Glycine max, UniProt P08170)", "T3 construct": "purchased Sigma-Aldrich", "T3 sequence (P08170 1-839)": "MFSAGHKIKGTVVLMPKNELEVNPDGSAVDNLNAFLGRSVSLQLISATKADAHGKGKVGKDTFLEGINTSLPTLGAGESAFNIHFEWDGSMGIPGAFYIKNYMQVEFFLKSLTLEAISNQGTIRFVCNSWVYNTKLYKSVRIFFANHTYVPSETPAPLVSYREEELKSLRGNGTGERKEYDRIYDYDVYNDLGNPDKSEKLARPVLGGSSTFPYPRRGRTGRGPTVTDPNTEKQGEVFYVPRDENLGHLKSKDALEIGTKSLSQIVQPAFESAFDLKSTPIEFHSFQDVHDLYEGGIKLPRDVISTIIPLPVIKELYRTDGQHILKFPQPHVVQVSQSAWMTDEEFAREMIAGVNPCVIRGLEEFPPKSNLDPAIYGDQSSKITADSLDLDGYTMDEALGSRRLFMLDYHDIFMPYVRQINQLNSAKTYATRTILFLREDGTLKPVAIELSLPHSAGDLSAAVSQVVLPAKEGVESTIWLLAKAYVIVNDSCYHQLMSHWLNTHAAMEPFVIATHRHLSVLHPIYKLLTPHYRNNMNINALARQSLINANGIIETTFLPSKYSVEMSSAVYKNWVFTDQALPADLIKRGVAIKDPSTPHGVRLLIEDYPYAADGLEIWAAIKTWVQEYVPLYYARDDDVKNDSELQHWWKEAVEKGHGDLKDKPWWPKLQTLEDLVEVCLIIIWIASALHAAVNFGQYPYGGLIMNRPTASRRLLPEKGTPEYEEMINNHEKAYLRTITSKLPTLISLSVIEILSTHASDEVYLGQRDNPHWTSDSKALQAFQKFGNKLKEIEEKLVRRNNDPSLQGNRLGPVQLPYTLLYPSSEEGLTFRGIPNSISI", "assay": "5-LOX inhibition assay", "assay_type": "biochemical, Glycine max (soybean)", "settings": "for inhibition at 100 µM: read-out: inhibition of the 5-LOX enzyme; for IC50: read-out: IC50 5-LOX pure enzyme"}, "[4]": {"target": "PLA2 + 5-LOX coupled system (Apis mellifera, UniProt P00630)", "sequence (P00630 whole entry, looked up)": "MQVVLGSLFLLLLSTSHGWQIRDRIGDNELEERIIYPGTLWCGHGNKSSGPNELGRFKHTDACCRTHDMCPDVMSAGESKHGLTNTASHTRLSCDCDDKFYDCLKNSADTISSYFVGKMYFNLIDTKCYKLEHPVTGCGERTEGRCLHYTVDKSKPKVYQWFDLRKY", "assay": "biochemical", "assay_type": "biochemical, Apis mellifera bee venom (PLA2), Glycine max (5-LOX)", "settings": "for inhibition at 100 µM: read-out: inhibition of PLA2 + 5-LOX coupled system; for IC50: read-out: IC50 PLA2 + 5-LOX coupled system"}}, "note": "Where “and” joins values, the source holds several entries; their conditions need not be identical. Identical values can stand only once. Like-named read-outs stand apart in the source and are kept apart here."}
{"smiles": "C/C=C(/C=O)[C@@H](CC=O)CC(=O)OCCc1ccc(O)cc1", "note": "[oleocanthal, reference compound]", "values": [{"measurement": "IC50", "setting": "[1]", "value": "< 0.1", "unit": "µM"}, {"measurement": "IC50", "setting": "[2]; read-out: IC50 COX-2", "value": 16.6, "unit": "µM"}]}
{"smiles": "O=c1c(O)c(-c2ccc(O)c(O)c2)oc2cc(O)cc(O)c12", "note": "[quercetin, reference compound]", "values": [{"measurement": "inhibition at 100 µM", "setting": "[3]; 100 µM, mean ± SEM", "value": 59.5, "unit": "%"}]}
{"smiles": "OCCc1ccc(O)c(O)c1", "note": "[HyTy, hydroxytyrosol]", "values": [{"measurement": "inhibition at 100 µM", "setting": "[4]", "value": 18.6, "unit": "%"}, {"measurement": "inhibition at 100 µM", "setting": "[3]; 100 µM, mean ± SEM", "value": 22.2, "unit": "%"}, {"measurement": "IC50", "setting": "[1]", "value": 0.13, "unit": "µM"}, {"measurement": "IC50", "setting": "[2]; IC50 COX-2", "value": "2.42 µM and 2.4 µM and < 3 µM"}]}
{"smiles": "CC(=O)OCCc1ccc(O)c(O)c1", "note": "[AcHyTy, hydroxytyrosol acetate]", "values": [{"measurement": "IC50", "setting": "[4]", "value": 73.5, "unit": "µM"}, {"measurement": "inhibition at 100 µM", "setting": "[4]", "value": 86.1, "unit": "%"}, {"measurement": "IC50", "setting": "[3]", "value": 107, "unit": "µM"}, {"measurement": "inhibition at 100 µM", "setting": "[3]", "value": 49, "unit": "%"}, {"measurement": "IC50", "setting": "[1]", "value": 0.3, "unit": "µM"}, {"measurement": "IC50", "setting": "[2]; read-out: IC50 COX-2", "value": 13.3, "unit": "µM"}]}
{"smiles": "C/C=C(/C=O)[C@@H](CC=O)CC(=O)OCCc1ccc(O)c(O)c1", "note": "[oleacein]", "values": [{"measurement": "IC50", "setting": "[4]", "value": 16.1, "unit": "µM"}, {"measurement": "inhibition at 100 µM", "setting": "[4]", "value": 100, "unit": "%"}, {"measurement": "inhibition at 100 µM", "setting": "[3]; 100 µM, mean ± SEM", "value": 58.1, "unit": "%"}, {"measurement": "IC50", "setting": "[3]", "value": 45, "unit": "µM"}, {"measurement": "IC50", "setting": "[1]", "value": 1.46, "unit": "µM"}, {"measurement": "inhibitory activity on COX-2, times greater than oleocanthal", "setting": "[2]; from IC50 1.27 µM versus 16.6 µM", "value": 13, "unit": "times"}, {"measurement": "IC50", "setting": "[2]; read-out: IC50 COX-2", "value": "1.27 µM and < 3 µM"}]}
